Measurements reported in PubChem BioAssay AID2060510 (Molecular Pharmacology Branch, DTP, NCI, 2025).

System: 439559-082-T-J2-PDC spheroids viability
Assay: Anticancer human tumor 439559-082-T-J2-PDC patient-derived colon adenocarcinoma cell line growth inhibition [GQUAD]
Details: for IC50: curve of first compound; for viability, T/C: stronger effect = lower value; active means viability on the fitted dose curve at most 10% of control; inactive means the rest
How it was run: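 Viability of tumor cells grown as complex spheroids with endothelial and stromal cells, exposed to drug combinations. Top concentration at or near clinical Cmax (else 10 microM), diluted in half-log increments.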

[1] = second compound 0.0316 µM, first compound 0.0316 µM
[2] = second compound 0.0316 µM, first compound 0.316 µM
[3] = second compound 0.1 µM, first compound 0.0316 µM
[4] = second compound 0.1 µM, first compound 0.316 µM
[5] = second compound 0.316 µM, first compound 0.0316 µM
[6] = second compound 0.316 µM, first compound 0.316 µM
[7] = second compound 1 µM, first compound 0.0316 µM
[8] = second compound 1 µM, first compound 0.316 µM
[9] = second compound 3.16 µM, first compound 0.0316 µM
[10] = second compound 3.16 µM, first compound 0.316 µM
[11] = second compound 10 µM, first compound 0.0316 µM
[12] = second compound 10 µM, first compound 0.316 µM
[13] = second compound 0.0316 µM, first compound 0.1 µM
[14] = second compound 0.0316 µM, first compound 1 µM
[15] = second compound 0.0316 µM, first compound 3.16 µM
[16] = second compound 0.0316 µM, first compound 10 µM
[17] = second compound 0.1 µM, first compound 0.1 µM
[18] = second compound 0.1 µM, first compound 1 µM
[19] = second compound 0.1 µM, first compound 3.16 µM
[20] = second compound 0.1 µM, first compound 10 µM
[21] = second compound 0.316 µM, first compound 0.1 µM
[22] = second compound 0.316 µM, first compound 1 µM
[23] = second compound 0.316 µM, first compound 3.16 µM
[24] = second compound 0.316 µM, first compound 10 µM
[25] = second compound 1 µM, first compound 0.1 µM
[26] = second compound 1 µM, first compound 1 µM
[27] = second compound 1 µM, first compound 3.16 µM
[28] = second compound 1 µM, first compound 10 µM
[29] = second compound 3.16 µM, first compound 0.1 µM
[30] = second compound 3.16 µM, first compound 1 µM
[31] = second compound 3.16 µM, first compound 3.16 µM
[32] = second compound 3.16 µM, first compound 10 µM
[33] = second compound 10 µM, first compound 0.1 µM
[34] = second compound 10 µM, first compound 1 µM
[35] = second compound 10 µM, first compound 3.16 µM
[36] = second compound 10 µM, first compound 10 µM
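Further: spheroids exposed to the agents for 7 days before readout.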
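Wherever viability, T/C is given: percent of luminescence signal in DMSO vehicle wells taken as 100% viability.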

CC[C@@]1(O)C(=O)OCc2c1cc1n(c2=O)Cc2cc3c(CN(C)C)c(O)ccc3nc2-1 + CN(C)c1ccc(Nc2c3ccc(NC(=O)CCN4CCCC4)cc3nc3cc(NC(=O)CCN4CCCC4)ccc23)cc1
inactive: viability, T/C (second compound 0.0316 µM, first compound 0.000999 µM) 102% | viability, T/C (second compound 0.0316 µM, first compound 0.00316 µM) 94.6% | viability, T/C (second compound 0.0316 µM, first compound 0.00999 µM) 104% | viability, T/C [1] 106% | viability, T/C (second compound 0.0316 µM, first compound 0.0999 µM) 90.2% | viability, T/C [2] 76% | viability, T/C (second compound 0.1 µM, first compound 0.000999 µM) 108% | viability, T/C (second compound 0.1 µM, first compound 0.00316 µM) 111% | viability, T/C (second compound 0.1 µM, first compound 0.00999 µM) 102% | viability, T/C [3] 85.7% | viability, T/C (second compound 0.1 µM, first compound 0.0999 µM) 91.8% | viability, T/C [4] 84% | viability, T/C (second compound 0.316 µM, first compound 0.000999 µM) 123% | viability, T/C (second compound 0.316 µM, first compound 0.00316 µM) 97.1% | viability, T/C (second compound 0.316 µM, first compound 0.00999 µM) 101% | viability, T/C [5] 100% | viability, T/C (second compound 0.316 µM, first compound 0.0999 µM) 87.9% | viability, T/C [6] 84.7% | viability, T/C (second compound 1 µM, first compound 0.000999 µM) 114% | viability, T/C (second compound 1 µM, first compound 0.00316 µM) 99% | viability, T/C (second compound 1 µM, first compound 0.00999 µM) 88.5% | viability, T/C [7] 101% | viability, T/C (second compound 1 µM, first compound 0.0999 µM) 91.1% | viability, T/C [8] 80.1% | viability, T/C (second compound 3.16 µM, first compound 0.000999 µM) 99.8% | viability, T/C (second compound 3.16 µM, first compound 0.00316 µM) 92.6% | viability, T/C (second compound 3.16 µM, first compound 0.00999 µM) 102% | viability, T/C [9] 93.2% | viability, T/C (second compound 3.16 µM, first compound 0.0999 µM) 103% | viability, T/C [10] 91.9% | viability, T/C (second compound 10 µM, first compound 0.000999 µM) 102% | viability, T/C (second compound 10 µM, first compound 0.00316 µM) 95% | viability, T/C (second compound 10 µM, first compound 0.00999 µM) 100% | viability, T/C [11] 107% | viability, T/C (second compound 10 µM, first compound 0.0999 µM) 85.8% | viability, T/C [12] 88.5%
> 316 nM: IC50 (second compound 0.0316 µM) | IC50 (second compound 0.1 µM) | IC50 (second compound 0.316 µM) | IC50 (second compound 1 µM) | IC50 (second compound 3.16 µM) | IC50 (second compound 10 µM)

COc1cc(C2c3cc4c(cc3C(OC3OC5COC(C)OC5C(O)C3O)C3COC(=O)C23)OCO4)cc(OC)c1O (stereo not drawn) + CN(C)c1ccc(Nc2c3ccc(NC(=O)CCN4CCCC4)cc3nc3cc(NC(=O)CCN4CCCC4)ccc23)cc1
> 10000 nM: IC50 (second compound 0.0316 µM) | IC50 (second compound 0.1 µM) | IC50 (second compound 0.316 µM) | IC50 (second compound 1 µM) | IC50 (second compound 3.16 µM) | IC50 (second compound 10 µM)
inactive: viability, T/C [1] 102% | viability, T/C [13] 93.9% | viability, T/C [2] 103% | viability, T/C [14] 85.6% | viability, T/C [15] 87.1% | viability, T/C [16] 63.8% | viability, T/C [3] 96.4% | viability, T/C [17] 91.8% | viability, T/C [4] 98.4% | viability, T/C [18] 94.7% | viability, T/C [19] 85% | viability, T/C [20] 61.9% | viability, T/C [5] 104% | viability, T/C [21] 104% | viability, T/C [6] 89.6% | viability, T/C [22] 89% | viability, T/C [23] 78.6% | viability, T/C [24] 59.9% | viability, T/C [7] 104% | viability, T/C [25] 94.2% | viability, T/C [8] 89.6% | viability, T/C [26] 90% | viability, T/C [27] 76.5% | viability, T/C [28] 57% | viability, T/C [9] 98% | viability, T/C [29] 87.1% | viability, T/C [10] 104% | viability, T/C [30] 92.5% | viability, T/C [31] 92.4% | viability, T/C [32] 63.3% | viability, T/C [11] 98.5% | viability, T/C [33] 93.3% | viability, T/C [12] 94.9% | viability, T/C [34] 91.3% | viability, T/C [35] 75.9% | viability, T/C [36] 54.5%

COc1cccc2c1C(=O)c1c(O)c3c(c(O)c1C2=O)CC(O)(C(=O)CO)CC3OC1CC(N)C(O)C(C)O1 (stereo not drawn) + CN(C)c1ccc(Nc2c3ccc(NC(=O)CCN4CCCC4)cc3nc3cc(NC(=O)CCN4CCCC4)ccc23)cc1
5070 nM: IC50 (second compound 3.16 µM)
5900 nM: IC50 (second compound 1 µM)
6450 nM: IC50 (second compound 0.316 µM)
7920 nM: IC50 (second compound 10 µM)
5760 nM: IC50 (second compound 0.0316 µM)
inactive: viability, T/C [1] 106% | viability, T/C [13] 86.7% | viability, T/C [2] 93.4% | viability, T/C [14] 77.5% | viability, T/C [15] 62.2% | viability, T/C [16] 38.8% | viability, T/C [3] 93.8% | viability, T/C [17] 95.5% | viability, T/C [4] 89.1% | viability, T/C [18] 73.2% | viability, T/C [19] 59.1% | viability, T/C [20] 47.4% | viability, T/C [5] 96.8% | viability, T/C [21] 101% | viability, T/C [6] 91.9% | viability, T/C [22] 83.5% | viability, T/C [23] 60.6% | viability, T/C [24] 43.4% | viability, T/C [7] 91.3% | viability, T/C [25] 99.9% | viability, T/C [8] 89.8% | viability, T/C [26] 86.1% | viability, T/C [27] 59.4% | viability, T/C [28] 42% | viability, T/C [9] 94.6% | viability, T/C [29] 96.1% | viability, T/C [10] 84% | viability, T/C [30] 84.9% | viability, T/C [31] 54.8% | viability, T/C [32] 42.4% | viability, T/C [11] 88.7% | viability, T/C [33] 102% | viability, T/C [12] 82.4% | viability, T/C [34] 77.8% | viability, T/C [35] 62.4% | viability, T/C [36] 46.8%
7850 nM: IC50 (second compound 0.1 µM)

Nc1ccn(C2OC(CO)C(O)C2(F)F)c(=O)n1 (stereo not drawn) + CN(C)c1ccc(Nc2c3ccc(NC(=O)CCN4CCCC4)cc3nc3cc(NC(=O)CCN4CCCC4)ccc23)cc1
232 nM: IC50 (second compound 0.316 µM)
261 nM: IC50 (second compound 0.0316 µM)
263 nM: IC50 (second compound 0.1 µM)
inactive: viability, T/C [1] 78.2% | viability, T/C [13] 65.2% | viability, T/C [2] 46.7% | viability, T/C [14] 32.3% | viability, T/C [15] 25.2% | viability, T/C [16] 20.5% | viability, T/C [3] 85.3% | viability, T/C [17] 70.4% | viability, T/C [4] 42.6% | viability, T/C [18] 36.3% | viability, T/C [19] 26.2% | viability, T/C [20] 23% | viability, T/C [5] 84.8% | viability, T/C [21] 68.6% | viability, T/C [6] 42.5% | viability, T/C [22] 29.2% | viability, T/C [23] 26.8% | viability, T/C [24] 20.8% | viability, T/C [7] 87% | viability, T/C [25] 65.7% | viability, T/C [8] 45.8% | viability, T/C [26] 28.2% | viability, T/C [27] 23.1% | viability, T/C [28] 19.5% | viability, T/C [9] 86.5% | viability, T/C [29] 67.9% | viability, T/C [10] 38.7% | viability, T/C [30] 28.9% | viability, T/C [31] 24.4% | viability, T/C [32] 19.7% | viability, T/C [11] 76.9% | viability, T/C [33] 59.9% | viability, T/C [12] 39.3% | viability, T/C [34] 18.5% | viability, T/C [35] 23.2% | viability, T/C [36] 18.7%
237 nM: IC50 (second compound 1 µM)
209 nM: IC50 (second compound 3.16 µM)
170 nM: IC50 (second compound 10 µM)
